Assay results: patent publication US7858349B2, “Anti-cancer compounds” (The Regents of the University of Colorado, priority 1999, dated 2010)
Where two headings read alike, the source gives them in different places.

Key:
[1] = tested on: SCLC strain SHP-77; assay: MTT assay for cell survival, SCLC SHP-77 in vitro; format: cell-based, human; conditions: ED50 for killing of SCLC strain SHP-77 in vitro, 4 days, 0 = no detectable activity
[2] = tested on: PC3 PC cells; assay: Inhibition of PC3 tumor growth in vivo in nude mice; parameters: species or system athymic nude mice; key to PC3 In vivo % inhib.: an IC50 value of “0” represents no detectable anti-cancer activity for a drug in a given cell line; “Stim.” indicates the observation of a stimulatory activity on the growth of the cancer cell line; conditions: percent inhibition of tumor growth in nude mice; prostate cancer; i.p. 5 mg/kg/every second day or 10 mg/kg/every fourth day
Method: Compounds having high in vitro cytotoxic activity were tested against implanted tumors in vivo. Athymic nude mice were implanted subcutaneously with suspensions (2 million SHP-77 SCLC cells, 1 million A549 NSCLC cells or 1.5 million PC3 PC cells) in Matrigel suspension. On the eighth day after tumor implantation groups of 5 mice bearing implants were injected intraperitoneally with the compounds being tested at 5 mg/kg/every second day or at 10 mg/kg/every fourth day; control animals were injected with an equal volume of isotonic saline. Less soluble compounds were initially dissolved in dimethyl sulfoxide (DMSO) and diluted with medium. In those cases the control injections contained the same concentration of DMSO. Tumor size was measured with a caliper three times per week. Tumor volume was calculated by the formula: Volume(cc)=3.14×(length)×(width)^2/6 At autopsy tumors were removed and weighed. Tumor inhibition was calculated on both weight and measurement basis. In each Table, an IC50 value of “0” represents no detectable anti-cancer activity for a drug in a given cell line and “Stim.” indicates the observation of a stimulatory activity on the growth of the cancer cell line.

Compound	IC50 ([1]; read-out: SCLC SHP-77 IC50)	PC3 In vivo % inhib. [2]	IC50 ([1]; read-out: SHP-77 In vitro IC50)
COc1ccc2c(c1)c(CC(=O)N[C@@H](Cc1ccc(OCc3c(Cl)cccc3Cl)cc1)C(=O)N1CCN(c3ncccn3)CC1)c(C)n2C(=O)c1ccc(Cl)cc1 [Analog M-1562, Indo-OC2Y-Pmpz]	> 60 µM	2%	–
COc1ccc2c(c1)c(CC(=O)N[C@@H](Cc1ccc(OCc3c(Cl)cccc3Cl)cc1)C(=O)NC1CCN(Cc3ccccc3)CC1)c(C)n2C(=O)c1ccc(Cl)cc1 [Analog M-1558, Indo-OC2Y-Abzp]	9.6 µM	Stim.	–
CC1(C)CC(NC(=O)[C@H](Cc2ccc(OCc3c(Cl)cccc3Cl)cc2)NCC=C(c2ccccc2)c2ccccc2)CC(C)(C)N1 [Analog M-1600, Pcnl-OC2Y-Atmp]	4.1 µM	44%	–
CC1(C)CC(NC(=O)C(Cc2ccc(OCc3c(Cl)cccc3Cl)cc2)NC(=O)C2(c3ccc(Cl)cc3)CC2)CC(C)(C)N1 (stereo not drawn) [Analog M-1422, Cpcpc-OC2Y-Atmp]	13 µM	31%	–
O=C(N[C@@H]1CN2CCC1CC2)C(Cc1ccc(OCc2c(Cl)cccc2Cl)cc1)NC(=O)C(c1ccccc1)C1CCCCC1 (single isomer, unassigned) [M-1550 #2]	4 µM	Stim.	–
O=C(/C=C/c1c(F)c(F)c(F)c(F)c1F)N[C@@H](Cc1ccc(OCc2c(Cl)cccc2Cl)cc1)C(=O)NCc1nc2ccccc2[nH]1 [Analog M-1624, F5c-OC2Y-Ambi]	50 µM	68%	–
CC1(C)CC(NC(=O)C(Cc2ccc(OCc3c(Cl)cccc3Cl)cc2)NC(=O)C(=Cc2ccccc2)c2ccccc2)CC(C)(C)N1 (stereo not drawn) [Analog M-1400, Pcn-OC2Y-Atmp]	1.3 µM	Stim.	–
CC1(C)CC(NC(=O)C(Cc2ccc(OCc3c(Cl)cccc3Cl)cc2)NC(=O)C#Cc2ccccc2)CC(C)(C)N1 (stereo not drawn) [Analog M-1398, Ppr-OC2Y-Atmp]	8 µM	65%	–
CC1(C)CC(NC(=O)C(Cc2c(F)c(F)c(F)c(F)c2F)NC(=O)C=Cc2c(F)c(F)c(F)c(F)c2F)CC(C)(C)N1 (stereo not drawn) [Analog M-1054, F5c-F5F-Atmp]	–	47%	4.6 µM
CC1(C)CC(NC(=O)C(Cc2ccc(OCc3c(Cl)cccc3Cl)cc2)NC(=O)C2CCc3ccccc3C2)CC(C)(C)N1 (stereo not drawn) [Analog M-1440, Th2n-OC2Y-Atmp]	3.5 µM	15%	–
Cc1onc(-c2ccccc2Cl)c1C(=O)N[C@@H](Cc1ccc(OCc2c(Cl)cccc2Cl)cc1)C(=O)NC1CC(C)(C)NC(C)(C)C1 [Analog M-1568, Cmioc-OC2Y-Atmp]	3.6 µM	Stim.	–
CC1(C)CC(NC(=O)C(Cc2ccc(OCc3c(Cl)cccc3Cl)cc2)NC(=O)C=Cc2ccc(N)cc2)CC(C)(C)N1 (stereo not drawn) [Analog M-1648, Pac-OC2Y-Atmp]	7.6 µM	28%	–
CC1(C)CC(NC(=O)[C@H](Cc2ccc(OCc3c(Cl)cccc3Cl)cc2)NC(=O)c2c3ccccc3nc3ccccc23)CC(C)(C)N1 [Analog M-1602, Acrc-OC2Y-Atmp]	1.6 µM	Stim.	–
CC1(C)CC(NC(=O)C(Cc2ccc(OCc3c(Cl)cccc3Cl)cc2)NC(=O)c2c(F)c(N)cc(F)c2F)CC(C)(C)N1 (stereo not drawn) [Analog M-1452, Atfb-OC2Y-Atmp]	7.2 µM	Stim.	–
COc1ccc2c(c1)c(CC(=O)N[C@H](Cc1ccc(OCc3c(Cl)cccc3Cl)cc1)C(=O)NC1CC(C)(C)NC(C)(C)C1)c(C)n2C(=O)c1ccc(Cl)cc1 [Analog M-1586, Indo-D-OC2Y-Atmp]	1.7 µM	38%	–
CC1(C)CC(NC(=O)C(Cc2ccc(OCc3c(Cl)cccc3Cl)cc2)NC(=O)c2c(F)c(F)c(F)c(F)c2F)CC(C)(C)N1 (stereo not drawn) [Analog M-1360, F5bz-OC2Y-Atmp]	4.1 µM	Stim.	–
CC1(C)CC(NC(=O)C(Cc2ccc(OCc3c(Cl)cccc3Cl)cc2)NC(=O)C=Cc2cccs2)CC(C)(C)N1 (stereo not drawn) [Analog M-1418, Thia-OC2Y-Atmp]	8.6 µM	9%	–
COc1ccc2c(c1)c(CC(=O)N[C@@H](Cc1ccc(C#N)cc1)C(=O)NC1CC(C)(C)NC(C)(C)C1)c(C)n2C(=O)c1ccc(Cl)cc1 [Analog M-1520, Indo-PCNF-Atmp]	13 µM	Stim.	–
COc1cc(C(=O)NC(Cc2ccc(OCc3c(Cl)cccc3Cl)cc2)C(=O)NC2CC(C)(C)NC(C)(C)C2)cc(OC)c1OC (stereo not drawn) [Analog M-1408, 3,4,5Tmb-OC2Y-Atmp]	8 µM	Stim.	–
CC1(C)CC(NC(=O)C(Cc2ccc(OCc3c(Cl)cccc3Cl)cc2)NC(=O)C2CC(=O)NC(=O)N2)CC(C)(C)N1 (stereo not drawn) [Analog M-1462, Hor-OC2Y-Atmp]	> 60 µM	7%	–

Compound	IC50 ([1]; read-out: SCLC SHP-77 IC50)	PC3 In vivo % inhib. [2]	IC50 ([1]; read-out: SHP-77 In vitro IC50)
Cc1ncc(CO)c(CN[C@@H](Cc2ccc(OCc3c(Cl)cccc3Cl)cc2)C(=O)NC2CC(C)(C)NC(C)(C)C2)c1O [Analog M-1610, B6-OC2Y-Atmp]	> 60 µM	Stim.	–
O=C(C=Cc1c(F)c(F)c(F)c(F)c1F)NC(Cc1ccc(OCc2c(Cl)cccc2Cl)cc1)C(=O)NC1CCN(Cc2ccccc2)CC1 (stereo not drawn) [Analog M-1552, F5c-OC2Y-Abzp]	13 µM	52%	–
O=C(NC(Cc1ccc2ccccc2c1)C(=O)N1CCC(N2CCCCC2)CC1)C(c1ccc(Cl)cc1)c1ccc(Cl)cc1 (stereo not drawn) [Analog M-1246, Bcpa-Nal-Pipp]	–	Stim	3.6 µM
O=C(C=Cc1c(F)c(F)c(F)c(F)c1F)NC(Cc1ccc(OCc2c(Cl)cccc2Cl)cc1)C(=O)NC1CN2CCC1CC2 [Analog M-1546, F5c-OC2Y-(S)-Aqu]	1.8 µM	29%	–
CCCCCC=CC(=O)NC(Cc1ccc(OCc2c(Cl)cccc2Cl)cc1)C(=O)NC1CC(C)(C)NC(C)(C)C1 (stereo not drawn) [Analog M-1412, 2Octe-OC2Y-Atmp]	12 µM	38%	–
COc1ccc2c(c1)c(CC(=O)NC(C(=O)NC1CC(C)(C)NC(C)(C)C1)C(C)(C)SCc1ccc(C)cc1)c(C)n2C(=O)c1ccc(Cl)cc1 (stereo not drawn) [Analog M-1518, Indo-Pen(Mbzl)-Atmp]	6 µM	Stim.	–
Cc1ccc(CSC(C)(C)C(NC(=O)CCCc2c[nH]c3ccccc23)C(=O)NC2CC(C)(C)NC(C)(C)C2)cc1 (stereo not drawn) [Analog M-1474, 3Ibu-Pen(Mbzl)-Atmp]	7.8 µM	Stim.	–
COc1ccc2c(c1)c(CC(=O)N[C@@H](Cc1ccc(OCc3c(Cl)cccc3Cl)cc1)C(=O)NCCCN1CCN(C)CC1)c(C)n2C(=O)c1ccc(Cl)cc1 [Analog M-1584, Indo-OC2Y-Amp]	1.5 µM	32%	–
Cc1ccc(CSC(C)(C)C(NC(=O)C(C)(c2ccccc2)c2ccccc2)C(=O)NC2CC(C)(C)NC(C)(C)C2)cc1 (stereo not drawn) [Analog M-1510, 22Dp-Pen(Mbzl)-Atmp]	4.2 µM	Stim.	–
CC(C=CC1(O)C(C)=CC(=O)CC1(C)C)=CC(=O)NC(Cc1ccc(OCc2c(Cl)cccc2Cl)cc1)C(=O)NC1CC(C)(C)NC(C)(C)C1 (stereo not drawn) [Analog M-1464, Aba-OC2Y-Atmp]	14 µM	14%	–
CC1(C)CC(NC(=O)C(Cc2ccc(-c3ccccc3)cc2)NC(=O)C(c2ccc(Cl)cc2)c2ccc(Cl)cc2)CC(C)(C)N1 (stereo not drawn) [Analog M-1244, Bcpa-Bip-Atmp]	–	59%	1.3 µM
Cc1ccc(CSC(C)(C)C(NC(=O)C=Cc2c(F)c(F)c(F)c(F)c2F)C(=O)NC2CC(C)(C)NC(C)(C)C2)cc1 (stereo not drawn) [Analog M-1430, F5c-Pen(Mbzl)-Atmp]	6.1 µM	50%	–
O=C(C=Cc1c(F)c(F)c(F)c(F)c1F)NC(Cc1ccc(-c2ccccc2)cc1)C(=O)N1CC2CC1CN2Cc1ccccc1 (stereo not drawn) [Analog M-1268, F5c-Bip-Bdbh]	–	36%	3 µM
CC1(C)CC(NC(=O)[C@H](Cc2ccc(OCc3c(Cl)cccc3Cl)cc2)NCc2c(F)c(F)c(F)c(F)c2F)CC(C)(C)N1 [Analog M-1594, F5b-OC2Y-Atmp]	3.1 µM	20%	–
O=C(C=Cc1c(F)c(F)c(F)c(F)c1F)NC(Cc1ccc(-c2ccccc2)cc1)C(=O)N1CCN(c2ccccn2)CC1 (stereo not drawn) [Analog M-1258, F5c-Bip-Pypz]	–	10%	48 µM
O=C(C=Cc1c(F)c(F)c(F)c(F)c1F)NC(Cc1ccc(OCc2c(Cl)cccc2Cl)cc1)C(=O)N1CCN(c2ncccn2)CC1 (stereo not drawn) [Analog M-1554, F5c-OC2Y-Pmpz]	6.8 µM	Stim.	–
CC1(C)CC(NC(=O)C(NC(=O)C=Cc2c(F)c(F)c(F)c(F)c2F)C2Cc3ccccc3C2)CC(C)(C)N1 (stereo not drawn) [Analog M-1052, F5c-Igl-Atmp]	–	27%	7.3 µM
CC1(C)CC(NC(=O)C(Cc2ccc(OCc3c(Cl)cccc3Cl)cc2)NC(=O)c2c(F)c(N)cc(F)c2F)CC(C)(C)N1 (stereo not drawn) [Analog M-1420, Atfb-OC2Y-Atmp]	12 µM	Stim.	–
CC1(C)CC(NC(=O)C(Cc2ccc(OCc3c(Cl)cccc3Cl)cc2)NC(=O)COc2c(F)c(F)c(F)c(F)c2F)CC(C)(C)N1 (stereo not drawn) [Analog M-1358, F5po-OC2Y-Atmp]	4.1 µM	30%	–
